Test results as given in article PMC9814781, “Structure-based design of a dual-warhead covalent inhibitor of FGFR4” (Communications Chemistry, 2022).

Experiments:
Test in all cases: Kinase selectivity profiling
[1] = molecular target: ITK (Homo sapiens, UniProt Q08881)
[2] = molecular target: AurA (Homo sapiens, UniProt O14965)
[3] = molecular target: EPHB3 (Homo sapiens, UniProt P54753)
[4] = molecular target: AMPKα1/β1/γ1 (Homo sapiens, UniProt Q13131)
[5] = molecular target: FMS (CSF1R) (Homo sapiens, UniProt P07333)
FMS (CSF1R), sequence (P07333 20-972): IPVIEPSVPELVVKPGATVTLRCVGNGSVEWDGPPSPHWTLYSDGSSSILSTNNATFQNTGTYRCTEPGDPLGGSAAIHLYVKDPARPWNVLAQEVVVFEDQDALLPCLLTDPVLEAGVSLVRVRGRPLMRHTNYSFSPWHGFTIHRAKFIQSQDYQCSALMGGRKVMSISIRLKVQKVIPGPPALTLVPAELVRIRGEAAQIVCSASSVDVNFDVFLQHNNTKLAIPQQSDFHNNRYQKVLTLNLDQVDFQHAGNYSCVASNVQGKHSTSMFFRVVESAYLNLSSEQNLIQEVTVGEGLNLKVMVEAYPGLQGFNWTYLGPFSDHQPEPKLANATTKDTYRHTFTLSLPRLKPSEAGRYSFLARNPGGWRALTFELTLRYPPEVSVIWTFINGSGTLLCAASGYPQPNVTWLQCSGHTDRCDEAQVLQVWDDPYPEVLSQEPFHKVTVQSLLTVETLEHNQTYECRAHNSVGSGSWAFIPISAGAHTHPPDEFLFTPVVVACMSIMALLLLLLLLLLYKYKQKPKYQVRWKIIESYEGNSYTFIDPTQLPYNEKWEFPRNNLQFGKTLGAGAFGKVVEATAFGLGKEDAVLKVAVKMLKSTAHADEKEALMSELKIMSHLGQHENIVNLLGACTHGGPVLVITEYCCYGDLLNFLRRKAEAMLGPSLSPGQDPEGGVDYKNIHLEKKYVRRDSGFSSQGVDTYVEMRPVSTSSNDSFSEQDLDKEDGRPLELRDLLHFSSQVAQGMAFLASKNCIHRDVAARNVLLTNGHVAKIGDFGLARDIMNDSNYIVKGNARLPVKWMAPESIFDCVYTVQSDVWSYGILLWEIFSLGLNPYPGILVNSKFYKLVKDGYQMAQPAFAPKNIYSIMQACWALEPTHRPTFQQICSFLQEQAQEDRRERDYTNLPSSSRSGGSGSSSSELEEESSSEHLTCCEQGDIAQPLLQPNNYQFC

[6] = molecular target: TRKB (Homo sapiens, UniProt Q16620)
TRKB, sequence (Q16620 32-822): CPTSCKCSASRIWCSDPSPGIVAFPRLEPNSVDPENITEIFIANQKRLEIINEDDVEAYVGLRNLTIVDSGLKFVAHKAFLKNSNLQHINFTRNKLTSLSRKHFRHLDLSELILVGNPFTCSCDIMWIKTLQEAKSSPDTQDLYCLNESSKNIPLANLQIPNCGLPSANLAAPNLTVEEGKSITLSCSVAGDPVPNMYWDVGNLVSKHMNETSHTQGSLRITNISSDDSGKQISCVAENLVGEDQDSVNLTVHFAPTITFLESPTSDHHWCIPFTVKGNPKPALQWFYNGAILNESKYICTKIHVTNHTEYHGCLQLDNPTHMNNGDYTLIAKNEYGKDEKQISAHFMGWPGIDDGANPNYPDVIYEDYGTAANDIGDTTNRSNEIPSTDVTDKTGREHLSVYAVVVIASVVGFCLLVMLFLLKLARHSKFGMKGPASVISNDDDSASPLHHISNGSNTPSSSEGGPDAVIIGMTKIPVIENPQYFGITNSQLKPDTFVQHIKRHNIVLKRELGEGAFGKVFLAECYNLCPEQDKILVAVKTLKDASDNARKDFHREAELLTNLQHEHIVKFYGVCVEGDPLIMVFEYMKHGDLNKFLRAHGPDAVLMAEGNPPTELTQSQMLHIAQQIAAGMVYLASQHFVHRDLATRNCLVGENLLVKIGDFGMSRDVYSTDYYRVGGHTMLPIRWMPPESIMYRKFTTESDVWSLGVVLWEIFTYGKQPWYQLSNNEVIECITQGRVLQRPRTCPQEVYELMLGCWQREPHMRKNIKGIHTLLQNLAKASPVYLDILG

[7] = molecular target: HIPK4 (Homo sapiens, UniProt Q8NE63)
[8] = molecular target: RSK4 (Homo sapiens, UniProt Q9UK32)
RSK4, sequence (Q9UK32 whole entry): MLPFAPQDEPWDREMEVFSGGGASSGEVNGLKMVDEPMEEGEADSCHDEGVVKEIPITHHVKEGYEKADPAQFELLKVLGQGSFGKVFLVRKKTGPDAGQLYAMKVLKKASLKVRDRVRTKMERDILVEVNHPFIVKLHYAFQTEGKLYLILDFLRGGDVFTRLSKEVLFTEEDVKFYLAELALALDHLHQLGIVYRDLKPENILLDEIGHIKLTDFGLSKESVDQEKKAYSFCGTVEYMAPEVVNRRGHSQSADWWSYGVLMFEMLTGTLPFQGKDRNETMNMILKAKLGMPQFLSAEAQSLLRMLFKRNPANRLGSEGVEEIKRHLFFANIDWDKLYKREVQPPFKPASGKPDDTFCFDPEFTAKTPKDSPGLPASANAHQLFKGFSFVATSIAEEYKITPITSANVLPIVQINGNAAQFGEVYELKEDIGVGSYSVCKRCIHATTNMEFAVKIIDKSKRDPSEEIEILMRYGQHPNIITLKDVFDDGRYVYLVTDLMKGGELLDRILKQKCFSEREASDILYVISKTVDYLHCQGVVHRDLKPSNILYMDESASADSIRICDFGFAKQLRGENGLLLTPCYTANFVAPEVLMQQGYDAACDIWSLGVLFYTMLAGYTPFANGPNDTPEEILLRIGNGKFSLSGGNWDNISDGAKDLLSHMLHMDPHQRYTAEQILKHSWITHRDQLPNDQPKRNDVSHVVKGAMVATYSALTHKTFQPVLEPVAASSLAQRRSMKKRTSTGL

[9] = molecular target: PIM3 (Homo sapiens, UniProt Q86V86)
[10] = molecular target: BRK (Homo sapiens, UniProt Q13882)
BRK, sequence (Q13882 whole entry): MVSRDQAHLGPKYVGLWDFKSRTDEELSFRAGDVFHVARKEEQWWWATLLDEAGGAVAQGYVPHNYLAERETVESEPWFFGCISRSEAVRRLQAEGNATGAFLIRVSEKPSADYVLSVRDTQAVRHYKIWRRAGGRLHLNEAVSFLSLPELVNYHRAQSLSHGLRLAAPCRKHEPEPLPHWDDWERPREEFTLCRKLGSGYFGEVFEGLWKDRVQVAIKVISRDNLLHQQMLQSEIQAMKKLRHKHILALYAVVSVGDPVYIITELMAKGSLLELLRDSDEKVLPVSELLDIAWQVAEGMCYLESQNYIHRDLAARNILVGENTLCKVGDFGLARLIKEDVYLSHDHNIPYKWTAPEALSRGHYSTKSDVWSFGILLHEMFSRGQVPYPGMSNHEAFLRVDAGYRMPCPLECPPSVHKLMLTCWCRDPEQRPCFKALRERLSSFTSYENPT

[11] = molecular target: p38γ (Homo sapiens, UniProt P53778)
p38γ, sequence (P53778 whole entry): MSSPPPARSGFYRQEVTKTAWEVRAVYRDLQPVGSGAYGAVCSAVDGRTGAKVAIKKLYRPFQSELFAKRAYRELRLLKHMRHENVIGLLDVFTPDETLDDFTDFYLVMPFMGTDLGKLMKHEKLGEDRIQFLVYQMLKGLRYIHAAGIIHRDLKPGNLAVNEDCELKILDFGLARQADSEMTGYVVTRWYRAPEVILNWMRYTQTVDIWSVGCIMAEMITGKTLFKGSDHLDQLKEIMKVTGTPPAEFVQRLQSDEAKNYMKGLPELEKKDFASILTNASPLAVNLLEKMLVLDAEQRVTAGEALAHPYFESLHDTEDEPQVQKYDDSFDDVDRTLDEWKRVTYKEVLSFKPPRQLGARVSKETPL

AurA, sequence (O14965 whole entry): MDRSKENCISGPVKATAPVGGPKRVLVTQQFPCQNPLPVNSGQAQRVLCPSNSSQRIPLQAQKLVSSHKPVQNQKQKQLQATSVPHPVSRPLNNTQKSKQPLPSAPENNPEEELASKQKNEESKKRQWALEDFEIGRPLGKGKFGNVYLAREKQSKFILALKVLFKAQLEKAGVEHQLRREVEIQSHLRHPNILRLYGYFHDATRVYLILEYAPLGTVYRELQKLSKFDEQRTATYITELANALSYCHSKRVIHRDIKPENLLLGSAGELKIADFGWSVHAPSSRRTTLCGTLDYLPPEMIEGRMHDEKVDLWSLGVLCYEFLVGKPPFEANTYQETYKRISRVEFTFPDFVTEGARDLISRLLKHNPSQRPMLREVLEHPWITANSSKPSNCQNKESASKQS
ITK, sequence (Q08881 whole entry): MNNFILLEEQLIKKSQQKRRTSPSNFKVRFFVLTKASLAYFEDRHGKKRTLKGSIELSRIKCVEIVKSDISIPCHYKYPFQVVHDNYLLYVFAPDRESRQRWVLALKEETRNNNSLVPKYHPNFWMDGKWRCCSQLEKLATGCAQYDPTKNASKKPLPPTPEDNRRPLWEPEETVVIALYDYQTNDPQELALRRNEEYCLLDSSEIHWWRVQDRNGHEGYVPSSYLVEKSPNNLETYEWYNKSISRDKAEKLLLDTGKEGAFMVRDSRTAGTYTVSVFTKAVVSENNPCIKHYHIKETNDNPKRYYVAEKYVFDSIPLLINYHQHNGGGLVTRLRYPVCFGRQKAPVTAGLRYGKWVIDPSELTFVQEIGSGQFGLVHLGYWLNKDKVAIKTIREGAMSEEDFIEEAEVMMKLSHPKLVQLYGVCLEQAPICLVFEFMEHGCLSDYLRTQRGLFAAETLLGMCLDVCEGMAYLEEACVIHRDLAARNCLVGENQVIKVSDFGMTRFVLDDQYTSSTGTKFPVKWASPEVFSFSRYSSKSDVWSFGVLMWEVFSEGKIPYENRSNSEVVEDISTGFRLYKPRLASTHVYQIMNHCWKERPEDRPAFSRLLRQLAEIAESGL

C=CC(=O)Nc1ccccc1Nc1ncc2c(n1)N(CCCN1CCN(C(=O)C=C)CC1)C(=O)N(c1cc(OC)cc(OC)c1)C2 [CXF-009]
inhibition at 1 µM [1]: 4.35%
inhibition at 1 µM [2]: 15.4%
inhibition at 1 µM [3]: -0.82%
inhibition at 1 µM [4]: 2.23%
inhibition at 1 µM [5]: 15.4%
inhibition at 1 µM [6]: 42.1%
inhibition at 1 µM [7]: 2.32%
inhibition at 1 µM [8]: 0%
inhibition at 1 µM [9]: 17.5%
inhibition at 1 µM [10]: 1.91%
inhibition at 1 µM [11]: 0.13%
